# Measured values: PubChem BioAssay AID248 (DTP/NCI, 2004)
# Several values for one entry are separate records, joined by “and”; a condition that tells them apart may be missing. Equal values may be shown once. Toxic doses and inconclusive results are not listed.
# System: L1210 leukemia ip in BDF1 mice, survival T/C
# Assay: NCI In Vivo Anticancer Drug Screen. Data for tumor model L1210 Leukemia (intraperitoneal) in B6D2F1 (BDF1) mice
# Settings: endpoint: mean survival time, higher = longer survival
# How it was run: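 Ratio derived from survival: compound-dosed mice over vehicle-dosed mice, all bearing a transplantable tumor.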
# [1] = dose: 50.0 mg/kg/injection, schedule: Q01DX009 (ip), vehicle: saline with Tween-80
# [2] = dose: 100.0 mg/kg/injection, schedule: Q04DX003 (ip), vehicle: saline with Tween-80
smiles,measurement,setting,value
CCCCNC(C)C1(O)Cc2c(O)c3c(c(O)c2C(OC2CC(N)C(O)C(C)O2)C1)C(=O)c1c(OC)cccc1C3=O (centres undefined),T/C,"dose: 5.0 mg/kg/injection, schedule: Q01DX009 (ip), vehicle: water",100 % of control
same,T/C,"dose: 10.0 mg/kg/injection, schedule: Q01DX009 (ip), vehicle: water",100 % of control
same,T/C,"dose: 20.0 mg/kg/injection, schedule: Q01DX009 (ip), vehicle: water",92 % of control
same,T/C,"dose: 80.0 mg/kg/injection, schedule: Q01DX009 (ip), vehicle: water",104 % of control
c1ccc(C2=Nc3ccccc3N=C3CCCC32)cc1 (centres undefined),T/C,"dose: 100.0 mg/kg/injection, schedule: Q01DX001 (ip), vehicle: carboxymethylcellulose (CMC)",103 % of control
same,T/C,"dose: 200.0 mg/kg/injection, schedule: Q01DX001 (ip), vehicle: carboxymethylcellulose (CMC)",100 % of control
same,T/C,"dose: 400.0 mg/kg/injection, schedule: Q01DX001 (ip), vehicle: carboxymethylcellulose (CMC)",97 % of control
COc1cc2c(cc1OC)C(C#N)C2 (centres undefined),T/C,"dose: 6.0 mg/kg/injection, schedule: Q01DX009 (ip), vehicle: Klucel (hydroxypropylcellulose) (HPC)",104 % of control
same,T/C,"dose: 12.0 mg/kg/injection, schedule: Q01DX009 (ip), vehicle: Klucel (hydroxypropylcellulose) (HPC)",92 % of control
same,T/C,"dose: 12.0 mg/kg/injection, schedule: Q04DX003 (ip), vehicle: Klucel (hydroxypropylcellulose) (HPC)",100 % of control and 105 % of control
same,T/C,"dose: 25.0 mg/kg/injection, schedule: Q01DX009 (ip), vehicle: Klucel (hydroxypropylcellulose) (HPC)",100 % of control
same,T/C,"dose: 25.0 mg/kg/injection, schedule: Q04DX003 (ip), vehicle: Klucel (hydroxypropylcellulose) (HPC)",100 % of control
same,T/C,"dose: 50.0 mg/kg/injection, schedule: Q04DX003 (ip), vehicle: Klucel (hydroxypropylcellulose) (HPC)",97 % of control and 92 % of control
Cc1cc2c(N)[nH]c(=O)nc2s1,T/C,"dose: 100.0 mg/kg/injection, schedule: Q04DX003 (ip), vehicle: water",90 % of control
same,T/C,"dose: 200.0 mg/kg/injection, schedule: Q04DX003 (ip), vehicle: water",93 % of control
CC1(C)CNC2OC1NCC2(C)C,T/C,"dose: 100.0 mg/kg/injection, schedule: Q01DX001 (ip), vehicle: saline sonified",112 % of control
same,T/C,"dose: 200.0 mg/kg/injection, schedule: Q01DX001 (ip), vehicle: saline sonified",89 % of control
same,T/C,"dose: 400.0 mg/kg/injection, schedule: Q01DX001 (ip), vehicle: saline sonified",95 % of control
O=NN(CCF)C(=O)Nc1ccccc1,T/C,"dose: 18.0 mg/kg/injection, schedule: Q01DX001 (ip), vehicle: other",160 % of control
OC(CNc1ccccc1)CN1CCCCC1 (centres undefined),T/C,"dose: 100.0 mg/kg/injection, schedule: Q04DX003 (ip), vehicle: saline",94 % of control
OC(C#Cc1ccccc1)c1ccccc1 (centres undefined),T/C,[1],105 % of control
same,T/C,"dose: 100.0 mg/kg/injection, schedule: Q01DX009 (ip), vehicle: saline with Tween-80",100 % of control
same,T/C,[2],95 % of control
same,T/C,"dose: 200.0 mg/kg/injection, schedule: Q01DX009 (ip), vehicle: saline with Tween-80",88 % of control and 89 % of control
same,T/C,"dose: 200.0 mg/kg/injection, schedule: Q04DX003 (ip), vehicle: saline with Tween-80",101 % of control
same,T/C,"dose: 400.0 mg/kg/injection, schedule: Q01DX009 (ip), vehicle: saline with Tween-80",98 % of control
C/C(C/C(C)=N\N=C(N)N)=N/N=C(N)N,T/C,"dose: 15.0 mg/kg/injection, schedule: Q01DX Z (ip), vehicle: carboxymethylcellulose (CMC)",96 % of control
same,T/C,"dose: 30.0 mg/kg/injection, schedule: Q01DX Z (ip), vehicle: carboxymethylcellulose (CMC)",98 % of control
same,T/C,"dose: 60.0 mg/kg/injection, schedule: Q01DX Z (ip), vehicle: carboxymethylcellulose (CMC)",95 % of control
same,T/C,"dose: 60.0 mg/kg/injection, schedule: Q01DX Z (oral), vehicle: carboxymethylcellulose (CMC)",90 % of control
same,T/C,"dose: 120.0 mg/kg/injection, schedule: Q01DX Z (ip), vehicle: carboxymethylcellulose (CMC)",95 % of control
same,T/C,"dose: 120.0 mg/kg/injection, schedule: Q01DX Z (oral), vehicle: carboxymethylcellulose (CMC)",90 % of control
same,T/C,"dose: 240.0 mg/kg/injection, schedule: Q01DX Z (oral), vehicle: carboxymethylcellulose (CMC)",96 % of control
same,T/C,"dose: 480.0 mg/kg/injection, schedule: Q01DX Z (oral), vehicle: carboxymethylcellulose (CMC)",96 % of control
[CH3][Sn]([CH3])([Cl])[Cl],T/C,"dose: 29.0 mg/kg/injection, schedule: Q01DX009 (ip), vehicle: saline",112 % of control
O=[Se]1OCc2ccccc2CO1,T/C,"dose: 9.5 mg/kg/injection, schedule: Q01DX001 (ip), vehicle: saline with Tween-80",101 % of control
same,T/C,"dose: 19.0 mg/kg/injection, schedule: Q01DX001 (ip), vehicle: saline with Tween-80",106 % of control
same,T/C,"dose: 38.0 mg/kg/injection, schedule: Q01DX001 (ip), vehicle: saline with Tween-80",113 % of control
CC(C)(C)NC/C(=C\c1ccccc1)S(=O)(=O)c1ccccc1[N+](=O)[O-],T/C,"dose: 50.0 mg/kg/injection, schedule: Q01DX001 (ip), vehicle: saline with Tween-80",91 % of control
same,T/C,"dose: 100.0 mg/kg/injection, schedule: Q01DX001 (ip), vehicle: saline with Tween-80",93 % of control
same,T/C,"dose: 200.0 mg/kg/injection, schedule: Q01DX001 (ip), vehicle: saline with Tween-80",95 % of control
CC(=O)Nc1ccc(N2CCN=N2)cc1,T/C,"dose: 25.0 mg/kg/injection, schedule: Q01DX009 (ip), vehicle: saline with Tween-80",103 % of control
same,T/C,[1],109 % of control
same,T/C,[2],97 % of control
